These results are taken from PMC8297771 (PLoS Pathogens, 2021).

Broadly, the IC50 is the concentration that gives 50% inhibition. Low values mean greater potency in that assay, high ones weaker potency in that assay. By EC50 is commonly meant the midpoint of the concentration-response curve. A word on the NOAEL: it is the highest tested level that showed no adverse finding.

In one data set the test system is CEMx174 cells. Description: Tissue culture cytotoxicity measurement in CEMx174 cells. It is filed as cell-based. On the procedure:
Fig 1 ALLINI structures and STP0404 activities. A. Quinoline-based BI224436, B. Benzothiazole-based GS-9822, C. Pyridine-based KF116, D. Pyrrolopyridine-based STP0404. The conserved chemical moiety containing tert-butoxy and carboxylic acid groups are marked by “]”. E. In vitro anti-HIV-1 efficacy of STP0404 against HIV-1NL4-3 and 89.6 strains in indicated cell lines. TI: Minimal therapeutic index values were calculated with 50% in vitro inhibitory concentration values (IC50) and 10 μM where no sign of cytotoxicity was observed during tissue culture cytotoxicity measurements (TC50) of all tested compounds in both MT4 and CEMx174 cell lines.

The target in data set [1] is T1, IN-RNA binding (His6 tagged IN, HIV-1 TAR RNA) (Human immunodeficiency virus type 1 group M subtype B, UniProt P12497).
T1 construct: incubated with 100 nM His6 tagged IN
Description: Alpha Screen inhibition assay for IN binding to RNA. The data set is classed as biochemical. On the procedure: Primary antiviral activity of ALLINIs was observed during virion maturation, where they inhibit IN-RNA interactions, we examined the ability of STP0404 to inhibit recombinant IN binding to synthetic TAR RNA using Alpha screen based assay. Briefly, different concentrations of STP0404 were incubated with 100 nM His6 tagged IN in buffer containing 100 mM NaCl, 1 mM MgCl2, 1 mM DTT, 1mg/mL BSA, 25 mM Tris, pH 7.4 at 4°C for 2 hrs. This mixture was then added to the nickel acceptor beads while biotinylated-TAR RNA was added to the streptavidin donor beads. After 2-hrs incubation at 4°C, the RNA mixture was added to the IN-drug mixture and the reading was taken after 1 hr incubation at 4°C by PerkinElmer Life Sciences Enspire multimode plate reader. The IC50 values were calculated by OriginLab software.

Data set [2] in a line: Plasma stability determination. The data set is classed as in vitro ADME, human, monkey, dog, rat and mouse. Particulars: all tested species; 5 μM, 60 mins, remaining percentage. The protocol:
STP0404 was incubated with human, monkey, dog, rat and mouse plasma. These incubations were carried out at a test concentration of 5 μM with an incubation period of 60 mins. Samples of human, monkey, dog, rat and mouse were taken at 0, 15, 30, 45, 60 mins. And stop the reaction by taking 50 μL aliquots to 400 μL acetonitrile with internal standard. Propantheline was used as positive control for human, monkey and mouse plasma and mevinolin as the positive control for dog and rat plasma. The remaining percentage was tested. This test was conducted by a fee to service through Pharmaron (Beijing, China).

The target in a further data set is IN-LEDGF/p75 binding (Human immunodeficiency virus type 1 group M subtype B, UniProt P12497). In words: HTRF-based inhibition assay for LEDGF/p75 binding to IN. It is filed as biochemical, HIV-1. On the procedure: We examined the ability of STP0404 to inhibit IN binding to LEDGF/p75 using another HTRF-based assay. Briefly, 10 nM His-tagged IN was pre-incubated in a binding buffer (150 mm NaCl, 2 mm MgCl2, 0.1% Nonidet P-40, 1 mg/ml BSA, 25 mm Tris, pH 7.4) with the compound for 30 min at room temperature, and then 10 nM FLAG-tagged LEDGF/p75 was added to the reaction. This was followed by addition of 6.6 nM anti-His6-XL665 and 0.45 nM anti-FLAG-EuCryptate antibodies (Cisbio, Inc., Bedford, MA).
In general terms: TR-FRET usually uses a lanthanide donor and a delayed reading to cut background.

Another data set deals with CYP3A and PXR. Description: PXR induction in DPX2 cells. It is filed as in vitro ADME. On the procedure:
STP0404 to activate PXR, and thereby to induce CYP3A4 expression in DPX2 cell lines following in vitro administration. […] After 48 hrs incubation, the cell viability was assessed fluorimetrically via CellTiter-FluorTM. CYP3A-mediated metabolism and PXR activation are measured using luminescence with Luciferin-IPA and ONE-GloTM, respectively. The light intensity is directly proportional to the extent of PXR activation and accompanying gene transcription in the DPX2 cells (Wuxi AppTec, China).

In another data set the target is T2, full-length IN (Human immunodeficiency virus type 1 group M subtype B, UniProt P12497).
T2 construct: between two full-length IN protein populations differentially labeled
In words: HTRF-based IN multimerization assay. The data set is classed as biochemical, HIV-1. The protocol:
To test the ability of STP0404 to induce higher-order multimerization of IN we employed homogeneous time-resolved fluorescence (HTRF)-based assay. Briefly, His-tagged and FLAG-tagged INs (each at 10 nM final concentration) were mixed in buffer containing 25 mM Tris, pH 7.4, 150 mM NaCl, 2 mM MgCl2, 0.1% Nonidet P-40 and 1 mg/ml BSA. This mixture was incubated with various concentrations of the test compounds for 3 hrs at room temperature. The detection is based on anti-His6-XL665 and anti-FLAG-EuCryptate antibodies (Cisbio, Inc., Bedford, MA) which were added to the reaction and incubated at room temperature for 3 hrs. The HTRF signal was recorded by PerkinElmer EnSpire multimode plate reader and OriginLab software was used to calculate the EC50 values.

Data set [3] in a line: Four-week oral dose toxicology study in dogs (GLP). The data set is classed as in vivo, beagle dogs. Particulars: for NOAEL at 4 weeks: both sexes, beagle. On the procedure: STP0404 was administered orally to 10 or 15 SD rats/sex/group at dose levels of 100, 300 and 600 mg/kg/day for 4 weeks to evaluate its potential toxicity. The reversibility of any effects was also assessed following a 2-week untreated recovery period. Control animals (15 animals/sex) received the vehicle, 0.5 w/v% methylcellulose solution, in a similar manner for comparison. In addition, plasma STP0404 concentrations were determined using TK satellite animals (3 animals/sex/group) to evaluate systemic exposure of the animals to the test article. (Study no. YL18402). STP0404 was administered orally as a capsule to 4 or 6 dogs/sex/group at dose levels of 30, 60 and 90 mg/kg/day for 4 weeks to evaluate its potential toxicity. Control animals (6 animals/sex) received empty gelatin capsules in a similar manner for comparison. The reversibility of any effects was also assessed following a 2-week untreated recovery period (2 animals/sex/group for the control and 90 mg/kg/day groups). In addition, plasma STP0404 concentrations were determined using all tested animals (including control group) to evaluate systemic exposure of the animals to the test article (Study no. YL18403). The test was performed according to the Standard Operating Procedures (SOP) the Good Laboratory Practice (GLP) system of the INA Research.

Molecules are shown by their SMILES. Bounds are passed on as bounds.

Take `Cc1nc2c(c(C)c(C)n2Cc2cnn(C)c2)c(-c2ccc(Cl)cc2)c1[C@H](OC(C)(C)C)C(=O)O` [STP0404]: the TC50 in the data set with CEMx174 cells is recorded as > 10,000 nM. The IC50 in data set [1] came to 20 ± 3 nM; at IN-LEDGF/p75 binding, 190 ± 70 nM. Further, the plasma stability in data set [2] is around 100%. Moreover, the “EC50 to activate drug metabolizing factors (in words)” value with CYP3A and PXR is “comparatively high concentrations”. Besides, a half-maximal effect at full-length IN (EC50) was put at 147 ± 20 nM. In data set [3] (beagle dogs, oral), the “single dose well tolerated up to” value is recorded as “up to 500 mg/kg”. Moreover, the NOAEL at 4 weeks was determined as 90 mg/kg in data set [3] (dog, in vivo, dogs, 4-week once daily oral dose); 90 mg/kg/day in data set [3] (dog, in vivo, male and female dogs, four-week oral). Besides, the “histopathology lesions (in words)” value in data set [3] (dog, in vivo) is reported as “lesions were not observed in any organ”. Besides, in data set [3] (dogs, 30 mg/kg, 60 mg/kg and 90 mg/kg, four-week oral), the “abnormal changes (in words)” value is given as “no abnormal changes were noted at any dose level”. Also, the “highest non-severely toxic dose (HNSTD)” value in data set [3] (four-week dog toxicology study, ICH guidance S9) is recorded as 90 mg/kg/day.
